Values quoted from earlier work in PubChem BioAssay AID1259409 (Chemical Carcinogenesis Research Information System (CCRIS), 2018).

System: rodent chemically induced tumor inhibition, incidence and multiplicity
Experiment: CCRIS tumor inhibitor studies
Settings: Route [Inhibitor]: ORAL, Species: RAT, Strain/Sex: SPRAGUE-DAWLEY/FEMALE

Structure (SMILES): COc1ccc(C[C@H]2COC(=O)[C@@H]2Cc2ccc(O[C@@H]3O[C@H](CO)[C@@H](O)[C@H](O)[C@H]3O)c(OC)c2)cc1OC
- tumour outcome (control, treated, inhibition, significance) (Carcinogen: 2-AMINO-1-METHYL-6-PHENYL-1H-IMIDAZO[4,5-B]PYRID INE, 105650-23-5, Dose [Inhibitor]: 0, 0.02% IN THE DIET FOR 8 WK BEGINNING 3 D POST LAST CARCINOGEN DOSE (STUDY DURATION: 48 WK), Target Tissue: Type of Lesion: MAMMARY GLAND: ADENOCARCINOMA, Dose [Carcinogen]: 100 MG/KG BW 1/WK FOR 8 WK BEGINNING AT 6 WK OF AGE, Promoter: NONE USED): 12/20 (60%), 10/19 (53%), 12%, not significant
- tumour outcome (control, treated, inhibition, significance) (Carcinogen: 2-AMINO-1-METHYL-6-PHENYL-1H-IMIDAZO[4,5-B]PYRID INE, 105650-23-5, Dose [Inhibitor]: 0, 0.02% IN THE DIET FOR 8 WK BEGINNING 3 D POST LAST CARCINOGEN DOSE (STUDY DURATION: 48 WK), Target Tissue: Type of Lesion: MAMMARY GLAND: FIBROADENOMA, Dose [Carcinogen]: 100 MG/KG BW 1/WK FOR 8 WK BEGINNING AT 6 WK OF AGE, Promoter: NONE USED): 2/20 (10%), 2/19 (11%), -10%, not significant
- tumour outcome (control, treated, inhibition, significance) (Carcinogen: 2-AMINO-1-METHYL-6-PHENYL-1H-IMIDAZO[4,5-B]PYRID INE, 105650-23-5, Dose [Inhibitor]: 0, 0.02% IN THE DIET FOR 8 WK BEGINNING 3 D PRIOR TO FIRST CARCINOGEN DOSE (STUDY DURATION: 48 WK), Target Tissue: Type of Lesion: MAMMARY GLAND: ADENOCARCINOMA, Dose [Carcinogen]: 100 MG/KG BW 1/WK FOR 8 WK CONCURRENT WITH INHIBITOR, Promoter: NONE USED): 12/20 (60%), 11/20 (55%), 8%, not significant
- tumour outcome (control, treated, inhibition, significance) (Carcinogen: 2-AMINO-1-METHYL-6-PHENYL-1H-IMIDAZO[4,5-B]PYRID INE, 105650-23-5, Dose [Inhibitor]: 0, 0.02% IN THE DIET FOR 8 WK BEGINNING 3 D PRIOR TO FIRST CARCINOGEN DOSE (STUDY DURATION: 48 WK), Target Tissue: Type of Lesion: MAMMARY GLAND: FIBROADENOMA, Dose [Carcinogen]: 100 MG/KG BW 1/WK FOR 8 WK CONCURRENT WITH INHIBITOR, Promoter: NONE USED): 2/20 (10%), 3/20 (15%), -50%, not significant
- tumour outcome (control, treated, inhibition, significance) (Carcinogen: 2-AMINO-1-METHYL-6-PHENYL-1H-IMIDAZO[4,5-B]PYRID INE, 105650-23-5, Dose [Inhibitor]: 0, 0.2% IN THE DIET FOR 8 WK BEGINNING 3 D POST LAST CARCINOGEN DOSE (STUDY DURATION: 48 WK), Target Tissue: Type of Lesion: MAMMARY GLAND: ADENOCARCINOMA, Dose [Carcinogen]: 100 MG/KG BW 1/WK FOR 8 WK BEGINNING AT 6 WK OF AGE, Promoter: NONE USED): 12/20 (60%), 11/20 (55%), 8%, not significant
- tumour outcome (control, treated, inhibition, significance) (Carcinogen: 2-AMINO-1-METHYL-6-PHENYL-1H-IMIDAZO[4,5-B]PYRID INE, 105650-23-5, Dose [Inhibitor]: 0, 0.2% IN THE DIET FOR 8 WK BEGINNING 3 D POST LAST CARCINOGEN DOSE (STUDY DURATION: 48 WK), Target Tissue: Type of Lesion: MAMMARY GLAND: ADENOCARCINOMA, Dose [Carcinogen]: 100 MG/KG BW 1/WK FOR 8 WK CONCURRENT WITH INHIBITOR, Promoter: NONE USED): 12/20 (60%), 13/20 (65%), -8%, not significant
- tumour outcome (control, treated, inhibition, significance) (Carcinogen: 2-AMINO-1-METHYL-6-PHENYL-1H-IMIDAZO[4,5-B]PYRID INE, 105650-23-5, Dose [Inhibitor]: 0, 0.2% IN THE DIET FOR 8 WK BEGINNING 3 D PRIOR TO FIRST CARCINOGEN DOSE (STUDY DURATION: 48 WK), Target Tissue: Type of Lesion: MAMMARY GLAND: FIBROADENOMA, Dose [Carcinogen]: 100 MG/KG BW 1/WK FOR 8 WK CONCURRENT WITH INHIBITOR, Promoter: NONE USED): 2/20 (10%), 4/20 (20%), -100%, not significant
- tumour outcome (control, treated, inhibition, significance) (Carcinogen: 2-AMINO-1-METHYL-6-PHENYL-1H-IMIDAZO[4,5-B]PYRID INE, Dose [Inhibitor]: 0, 0.2% IN THE DIET FOR 8 WK BEGINNING 3 D POST LAST CARCINOGEN DOSE (STUDY DURATION: 48 WK), Target Tissue: Type of Lesion: MAMMARY GLAND: FIBROADENOMA, Dose [Carcinogen]: 100 MG/KG BW 1/WK FOR 8 WK BEGINNING AT 6 WK OF AGE, Promoter: NONE USED): 2/20 (10%), 2/20 (10%), 0%, not significant
- tumour outcome (control, treated, inhibition, significance) (Carcinogen: 2-AMINO-1-METHYL-6-PHENYLIMIDAZO[4,5-B]PYRIDINE [105650-23-5], Dose [Inhibitor]: 0.02% IN DIET FOR 8 WK BEGINNING 3 D PRIOR TO FIRST CARCINOGEN DOSE (STUDY DURATION: 48 WK), Target Tissue: Type of Lesion: MAMMARY GLAND: CARCINOMA, Dose [Carcinogen]: 100 MG/KG BW 1X/WK FOR 8 WK (STUDY DURATION: 48 WK), Promoter: NONE): 12/20 (60%), 11/20 (55%), 8%, not significant
- tumour outcome (control, treated, inhibition, significance) (Carcinogen: 2-AMINO-1-METHYL-6-PHENYLIMIDAZO[4,5-B]PYRIDINE [105650-23-5], Dose [Inhibitor]: 0.02% IN DIET FOR 8 WK BEGINNING 3 D PRIOR TO FIRST CARCINOGEN DOSE (STUDY DURATION: 48 WK), Target Tissue: Type of Lesion: MAMMARY GLAND: FIBROADENOMA, Dose [Carcinogen]: 100 MG/KG BW 1X/WK FOR 8 WK (STUDY DURATION: 48 WK), Promoter: NONE): 2/20 (10%), 3/20 (15%), -50%, not significant
- tumour outcome (control, treated, inhibition, significance) (Carcinogen: 2-AMINO-1-METHYL-6-PHENYLIMIDAZO[4,5-B]PYRIDINE [105650-23-5], Dose [Inhibitor]: 0.02% IN DIET FOR 40 WK BEGINNING 3 D POST LAST CARCINOGEN DOSE (STUDY DURATION: 48 WK), Target Tissue: Type of Lesion: MAMMARY GLAND: CARCINOMA, Dose [Carcinogen]: 100 MG/KG BW 1X/WK FOR 8 WK (STUDY DURATION: 48 WK), Promoter: NONE): 12/20 (60%), 10/19 (53%), 12%, not significant
- tumour outcome (control, treated, inhibition, significance) (Carcinogen: 2-AMINO-1-METHYL-6-PHENYLIMIDAZO[4,5-B]PYRIDINE [105650-23-5], Dose [Inhibitor]: 0.02% IN DIET FOR 40 WK BEGINNING 3 D POST LAST CARCINOGEN DOSE (STUDY DURATION: 48 WK), Target Tissue: Type of Lesion: MAMMARY GLAND: FIBROADENOMA, Dose [Carcinogen]: 100 MG/KG BW 1X FOR 8 WK (STUDY DURATION: 48 WK), Promoter: NONE): 2/20 (10%), 2/19 (11%), -10%, not significant
- tumour outcome (control, treated, inhibition, significance) (Carcinogen: 2-AMINO-1-METHYL-6-PHENYLIMIDAZO[4,5-B]PYRIDINE [105650-23-5], Dose [Inhibitor]: 0.2% IN DIET FOR 8 WK BEGINNING 3 D PRIOR TO FIRST CARCINOGEN DOSE (STUDY DURATION: 48 WK), Target Tissue: Type of Lesion: MAMMARY GLAND: CARCINOMA, Dose [Carcinogen]: 100 MG/KG BW 1X/WK FOR 8 WK (STUDY DURATION: 48 WK), Promoter: NONE): 12/20 (60%), 13/20 (65%), -8%, not significant
- tumour outcome (control, treated, inhibition, significance) (Carcinogen: 2-AMINO-1-METHYL-6-PHENYLIMIDAZO[4,5-B]PYRIDINE [105650-23-5], Dose [Inhibitor]: 0.2% IN DIET FOR 8 WK BEGINNING 3 D PRIOR TO FIRST CARCINOGEN DOSE (STUDY DURATION: 48 WK), Target Tissue: Type of Lesion: MAMMARY GLAND: FIBROADENOMA, Dose [Carcinogen]: 100 MG/KG BW 1X/WK FOR 8 WK (STUDY DURATION: 48 WK), Promoter: NONE): 2/20 (10%), 4/20 (20%), -100%, not significant
- tumour outcome (control, treated, inhibition, significance) (Carcinogen: 2-AMINO-1-METHYL-6-PHENYLIMIDAZO[4,5-B]PYRIDINE [105650-23-5], Dose [Inhibitor]: 0.2% IN DIET FOR 40 WK BEGINNING 3 D POST LAST CARCINOGEN DOSE (STUDY DURATION: 48 WK), Target Tissue: Type of Lesion: MAMMARY GLAND: CARCINOMA, Dose [Carcinogen]: 100 MG/KG BW 1X FOR 8 WK (STUDY DURATION: 48 WK), Promoter: NONE): 12/20 (60%), 11/20 (55%), 8%, not significant
- tumour outcome (control, treated, inhibition, significance) (Carcinogen: 2-AMINO-1-METHYL-6-PHENYLIMIDAZO[4,5-B]PYRIDINE [105650-23-5], Dose [Inhibitor]: 0.2% IN DIET FOR 40 WK BEGINNING 3 D POST LAST CARCINOGEN DOSE (STUDY DURATION: 48 WK), Target Tissue: Type of Lesion: MAMMARY GLAND: FIBROADENOMA, Dose [Carcinogen]: 100 MG/KG BW 1X FOR 8 WK (STUDY DURATION: 48 WK), Promoter: NONE): 2/20 (10%), 2/20 (10%), 0%, not significant
